According to EP0769966B1, “BIOTIN COMPOUNDS FOR TARGETTING TUMORS AND SITES OF INFECTION” (priority 1994, dated 1995):

What was measured:
avidin = avidin (Gallus gallus, UniProt P02701); experiment: Competitive binding of F-18 labeled biotin analogs to avidin vs. unlabeled d-biotin; details: in the presence of varying concentrations of unlabeled d-biotin
Method: The two biotin derivatives were evaluated for binding to avidin in the presence of varying concentrations of unlabeled d-biotin as described in Example 3.
A preliminary measure of the binding characteristics of the fluoro analogs of biotin were performed. The binding of these novel F-18 labeled biotin analogs to avidin was evaluated by measuring the binding of F-18 labeled biotin analogs to avidin in the presence of varying concentrations of unlabeled d-biotin. Serial dilutions of d-biotin were prepared in phopshate buffered saline pH 7.4 (PBS). A fixed quantity of the no-carrier added F-18 labeled biotin 1 or 2 (10- 100µCi) were mixed with each d-biotin dilution so that the range of concentrations of cold biotin were 3 orders of magnitude greater and less than the concentration of avidin ([…]). A 200 µl aliquot of the F-18 biotin/cold biotin solution was added to 200 µl of avidin in PBS. The solution was vortexed and allowed to incubate for 1 hour after which time a 5 µl aliquot of the solution was analysed by instant thin layer chromatography (Gelman ILTC-SG) using 0.1 M acetate buffer pH 6.0. In this chromatographic system the F-18 biotin analogs bound to avidin origin while the unbound F-18-biotin analogs move to the solvent front. Percent binding of F-18 biotin analog was calculated as [(counts at origin/total counts)* 100]. For each F-18-biotin analog potential impurities remaining at the origin were determined and the results of binding corrected accordingly.

in vivo = assay type: in vivo, male Sprague-Dawley rats; details: rat, in vivo, iv
Method: (§1) A clinical isolate of E. Coli was stored at -70°C in a freezing media containing 20% glycerol and 80% dextrose phosphate until use. Aliquots of bacteria were defrosted and colony counts performed on serial dilutions grown overnight on BBL Brucella agar plates. Based on the colony count, freshly thawed bacteria suspensions were washed and diluted with saline to a final concentration of […]. Aliquots (0.1 ml) of bacterial suspensions (8 x 10^9 organisms/ml) were injected into the right thigh muscle of 48 male Sprague-Dawley rats (125-150 g, Charles River Breeding Laboratories, Burlington, MD). Twenty-four rats were used for each labeled biotin compound. Twenty-four hours after injection, swelling in the right thigh readily appeared, and 24 rats each received 1.67 mg of avidin in saline via the tail vein. […] Rats were sacrificed at 5 and 60 min. post-injection, six rats per time point. Blood samples were obtained by cardiac puncture. Syringes were weighed before and after injection to determine the volume delivered. The activity per unit volume was obtained from standards. A total of eleven different tissues were excised, weighed, and counted. These tissues included blood; bone; lung; liver; adrenal; spleen; kidneys; heart; muscle (thigh); teste; and infected muscle (thigh). The excised tissues were blotted, weighed, and counted in a scintillation well counter. The raw counts were decay corrected. The results were expressed as percent injected dose per gram, and infection-to-normal muscle ratios (mean ± s.d.). The biodistribution results were evaluated by analysis of variance (one-way ANOVA). The effect of avidin […] on biodistribution was evaluated by student t-test.

E. coli infected rats = experiment: in vivo; assay type: in vivo, male Sprague-Dawley rats; details: for Infected to normal tissue ratio, Norm mus: infection/normal muscle
Method: as §1

Sequence of avidin (P02701 25-152): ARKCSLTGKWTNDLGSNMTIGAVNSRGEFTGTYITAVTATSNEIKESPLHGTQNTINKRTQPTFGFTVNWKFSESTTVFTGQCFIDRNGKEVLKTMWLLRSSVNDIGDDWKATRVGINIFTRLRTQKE

For `O=C1N[C@H]2[C@H](CS[C@H]2CCCCC[18F])N1` [Biotin 2], the binding to avidin (avidin) was “no specific binding”, the tissue uptake at 5 min (in vivo; Tissue distribution, Adrenal) was 1.56 ± 0.14 %ID/g and the tissue uptake at 1 h (in vivo; Tissue distribution, Adrenal) was 0.92 ± 0.21 %ID/g. The tissue uptake at 5 min (in vivo; Tissue distribution, Blood) was 0.88 ± 0.07 %ID/g, the tissue uptake at 1 h (in vivo; Tissue distribution, Blood) was 0.3 ± 0.02 %ID/g and the tissue uptake at 5 min (in vivo; Tissue distribution, Bone) was 0.73 ± 0.09 %ID/g. For the same compound, the tissue uptake at 1 h (in vivo; Tissue distribution, Bone) was 1.17 ± 0.21 %ID/g, the tissue uptake at 5 min (in vivo; Tissue distribution, Heart) was 0.8 ± 0.06 %ID/g and the tissue uptake at 1 h (in vivo; Tissue distribution, Heart) was 0.25 ± 0.03 %ID/g. The tissue uptake at 5 min (in vivo; Tissue distribution, Inf mus) was 0.49 ± 0.05 %ID/g, the tissue uptake at 1 h (in vivo; Tissue distribution, Inf mus) was 0.2 ± 0.02 %ID/g and the tissue uptake at 5 min (in vivo; Tissue distribution, Kidney) was 1.62 ± 0.18 %ID/g. The tissue uptake at 5 min (in vivo; Tissue distribution, Liver) was 1.63 ± 0.27 %ID/g, the tissue uptake at 1 h (in vivo; Tissue distribution, Liver) was 0.42 ± 0.03 %ID/g and the tissue uptake at 5 min (in vivo; Tissue distribution, Lung) was 1.38 ± 0.21 %ID/g. The tissue uptake at 1 h (in vivo; Tissue distribution, Lung) was 0.58 ± 0.1 %ID/g, the tissue uptake at 5 min (in vivo; Tissue distribution, Norm mus) was 0.62 ± 0.09 %ID/g and the tissue uptake at 1 h (in vivo; Tissue distribution, Norm mus) was 0.35 ± 0.09 %ID/g. The tissue uptake at 5 min (in vivo; Tissue distribution, Spleen) was 1.7 ± 0.68 %ID/g, the tissue uptake at 1 h (in vivo; Tissue distribution, Spleen) was 0.26 ± 0.01 %ID/g and the tissue uptake at 5 min (in vivo; Tissue distribution, Teste) was 0.59 ± 0.08 %ID/g. For the same compound, the tissue uptake at 1 h (in vivo; Tissue distribution, Teste) was 0.2 ± 0.03 %ID/g, the tissue uptake at 1 h (in vivo; ^18F bone uptake (defluorination in vivo)) was 1.17 ± 0.21 %ID/g and the “Infected to normal tissue ratio, Adrenal” value (E. coli infected rats; With Avidin, 5 Min.) was 0.22±0.03. The “Infected to normal tissue ratio, Blood” value (E. coli infected rats; With Avidin, 5 Min.) was 0.51±0.07, the “Infected to normal tissue ratio, Heart” value (E. coli infected rats; With Avidin, 5 Min.) was 0.46±0.03 and the “Infected to normal tissue ratio, Kidney” value (E. coli infected rats; With Avidin, 5 Min.) was 0.16±0.02. For the same compound, the “Infected to normal tissue ratio, Liver” value (E. coli infected rats; With Avidin, 5 Min.) was 0.23±0.02, the “Infected to normal tissue ratio, Lung” value (E. coli infected rats; With Avidin, 5 Min.) was 0.28±0.02 and the “Infected to normal tissue ratio, Spleen” value (E. coli infected rats; With Avidin, 5 Min.) was 0.44±0.05. The “Infected to normal tissue ratio, Teste” value (E. coli infected rats; With Avidin, 5 Min.) was 0.59±0.03, the “Infected to normal tissue ratio, bone” value (E. coli infected rats; With Avidin, 5 Min.) was 0.51±0.03 and the “Infected to normal tissue ratio, Norm mus” value (E. coli infected rats; With Avidin, 5 Min.) was 0.65±0.10. For the same compound, the “Infected to normal tissue ratio, Adrenal” value (E. coli infected rats; With Avidin, 60 Min.) was 0.214±0.03, the “Infected to normal tissue ratio, Blood” value (E. coli infected rats; With Avidin, 60 Min.) was 0.71±0.05 and the “Infected to normal tissue ratio, Heart” value (E. coli infected rats; With Avidin, 60 Min.) was 0.91±0.05. The “Infected to normal tissue ratio, Kidney” value (E. coli infected rats; With Avidin, 60 Min.) was 0.13±0.02, the “Infected to normal tissue ratio, Liver” value (E. coli infected rats; With Avidin, 60 Min.) was 0.33±0.05 and the “Infected to normal tissue ratio, Lung” value (E. coli infected rats; With Avidin, 60 Min.) was 0.33±0.06. For the same compound, the “Infected to normal tissue ratio, Spleen” value (E. coli infected rats; With Avidin, 60 Min.) was 0.35±0.04, the “Infected to normal tissue ratio, Teste” value (E. coli infected rats; With Avidin, 60 Min.) was 1.15±0.06 and the “Infected to normal tissue ratio, bone” value (E. coli infected rats; With Avidin, 60 Min.) was 0.17±0.03. For the same compound, the “Infected to normal tissue ratio, Norm mus” value (E. coli infected rats; With Avidin, 60 Min.) was 0.64±0.07, the “Infected to normal tissue ratio, Adrenal” value (E. coli infected rats; Without Avidin, 5 Min.) was 0.31±0.02 and the “Infected to normal tissue ratio, Blood” value (E. coli infected rats; Without Avidin, 5 Min.) was 0.56±0.04. The “Infected to normal tissue ratio, Heart” value (E. coli infected rats; Without Avidin, 5 Min.) was 0.61±0.03, the “Infected to normal tissue ratio, Kidney” value (E. coli infected rats; Without Avidin, 5 Min.) was 0.30±0.02 and the “Infected to normal tissue ratio, Liver” value (E. coli infected rats; Without Avidin, 5 Min.) was 0.31±0.04. The “Infected to normal tissue ratio, Lung” value (E. coli infected rats; Without Avidin, 5 Min.) was 0.36±0.05, the “Infected to normal tissue ratio, Spleen” value (E. coli infected rats; Without Avidin, 5 Min.) was 0.70±0.04 and the “Infected to normal tissue ratio, Teste” value (E. coli infected rats; Without Avidin, 5 Min.) was 0.84±0.10. For the same compound, the “Infected to normal tissue ratio, bone” value (E. coli infected rats; Without Avidin, 5 Min.) was 0.67±0.05, the “Infected to normal tissue ratio, Norm mus” value (E. coli infected rats; Without Avidin, 5 Min.) was 0.80±0.12 and the “Infected to normal tissue ratio, Adrenal” value (E. coli infected rats; Without Avidin, 60 Min.) was 0.23±0.05. For the same compound, the “Infected to normal tissue ratio, Blood” value (E. coli infected rats; Without Avidin, 60 Min.) was 0.68±0.06, the “Infected to normal tissue ratio, Heart” value (E. coli infected rats; Without Avidin, 60 Min.) was 0.81±0.05 and the “Infected to normal tissue ratio, Kidney” value (E. coli infected rats; Without Avidin, 60 Min.) was 0.35±0.03. The “Infected to normal tissue ratio, Liver” value (E. coli infected rats; Without Avidin, 60 Min.) was 0.48±0.33, the “Infected to normal tissue ratio, Lung” value (E. coli infected rats; Without Avidin, 60 Min.) was 0.43±0.20 and the “Infected to normal tissue ratio, Spleen” value (E. coli infected rats; Without Avidin, 60 Min.) was 0.78±0.08. For the same compound, the “Infected to normal tissue ratio, Teste” value (E. coli infected rats; Without Avidin, 60 Min.) was 1.04±0.11, the “Infected to normal tissue ratio, bone” value (E. coli infected rats; Without Avidin, 60 Min.) was 0.17±0.03 and the “Infected to normal tissue ratio, Norm mus” value (E. coli infected rats; Without Avidin, 60 Min.) was 0.58 ± 0.07. The “Infected to normal tissue ratio, Norm mus” value (E. coli infected rats; Without Avidin, 60 Min., listed as 18F-labeled biotin 2) was 0.58±0.07, the “Tissue distribution, Adrenal” value (E. coli infected rats; rat, in vivo, iv, 5 min) was 2.00±0.24 percent injected dose per gram and the “Tissue distribution, Blood” value (E. coli infected rats; rat, in vivo, iv, 5 min) was 0.85±0.04 percent injected dose per gram. For the same compound, the “Tissue distribution, Bone” value (E. coli infected rats; rat, in vivo, iv, 5 min) was 0.86±0.12 percent injected dose per gram, the “Tissue distribution, Heart” value (E. coli infected rats; rat, in vivo, iv, 5 min) was 0.96±0.10 percent injected dose per gram and the “Tissue distribution, Inf mus” value (E. coli infected rats; rat, in vivo, iv, 5 min) was 0.44±0.05 percent injected dose per gram. The “Tissue distribution, Kidney” value (E. coli infected rats; rat, in vivo, iv, 5 min) was 2.70±0.48 percent injected dose per gram, the “Tissue distribution, Liver” value (E. coli infected rats; rat, in vivo, iv, 5 min) was 1.91±0.22 percent injected dose per gram and the “Tissue distribution, Lung” value (E. coli infected rats; rat, in vivo, iv, 5 min) was 1.59±0.16 percent injected dose per gram. For the same compound, the “Tissue distribution, Norm mus” value (E. coli infected rats; rat, in vivo, iv, 5 min) was 0.69±0.10 percent injected dose per gram, the “Tissue distribution, Spleen” value (E. coli infected rats; rat, in vivo, iv, 5 min) was 0.99±0.10 percent injected dose per gram and the “Tissue distribution, Teste” value (E. coli infected rats; rat, in vivo, iv, 5 min) was 0.74±0.11 percent injected dose per gram. The “Tissue distribution, Adrenal” value (E. coli infected rats; rat, in vivo, iv, 1 h) was 0.72±0.12 percent injected dose per gram, the “Tissue distribution, Bone” value (E. coli infected rats; rat, in vivo, iv, 1 h) was 1.10±0.20 percent injected dose per gram and the “Tissue distribution, Inf mus” value (E. coli infected rats; rat, in vivo, iv, 1 h) was 0.18±0.02 percent injected dose per gram. The “Tissue distribution, Liver” value (E. coli infected rats; rat, in vivo, iv, 1 h) was 0.55±0.13 percent injected dose per gram, the “Tissue distribution, Lung” value (E. coli infected rats; rat, in vivo, iv, 1 h) was 0.55±0.12 percent injected dose per gram and the “Tissue distribution, Norm mus” value (E. coli infected rats; rat, in vivo, iv, 1 h) was 0.28±0.04 percent injected dose per gram. The “Tissue distribution, Spleen” value (E. coli infected rats; rat, in vivo, iv, 1 h) was 0.51±0.09 percent injected dose per gram and the “Tissue distribution, Teste” value (E. coli infected rats; rat, in vivo, iv, 1 h) was 0.15±0.02 percent injected dose per gram.
